Results reported in ChEMBL document CHEMBL1201862, “PubChem BioAssay data set” (2004).
Values joined by “and” are separate entries in the source; they are usually repeats but may differ in a detail not shown here. Equal entries are not always repeated. Structures can show the parent of a compound that is named as a salt. Active and inactive are the calls of the source.

Tests used:
[1] = molecular target: Exodeoxyribonuclease V (Escherichia coli (strain K12), UniProt P04993+P07648+P08394); experiment: RecBCD inhibition via phage-restricted bacterial growth – absorbance, V66 E. coli, mutant T4 phage, counter-screen for AddAB inhibitor project, dose response (AID 492957); assay type: functional, cell-based, Escherichia coli str. K-12 substr. MG1655
[2] = molecular target: Intestinal-type alkaline phosphatase (Mus musculus, UniProt P24822); experiment: PubChem AID 488874; assay type: functional
Intestinal-type alkaline phosphatase, sequence (P24822 whole entry): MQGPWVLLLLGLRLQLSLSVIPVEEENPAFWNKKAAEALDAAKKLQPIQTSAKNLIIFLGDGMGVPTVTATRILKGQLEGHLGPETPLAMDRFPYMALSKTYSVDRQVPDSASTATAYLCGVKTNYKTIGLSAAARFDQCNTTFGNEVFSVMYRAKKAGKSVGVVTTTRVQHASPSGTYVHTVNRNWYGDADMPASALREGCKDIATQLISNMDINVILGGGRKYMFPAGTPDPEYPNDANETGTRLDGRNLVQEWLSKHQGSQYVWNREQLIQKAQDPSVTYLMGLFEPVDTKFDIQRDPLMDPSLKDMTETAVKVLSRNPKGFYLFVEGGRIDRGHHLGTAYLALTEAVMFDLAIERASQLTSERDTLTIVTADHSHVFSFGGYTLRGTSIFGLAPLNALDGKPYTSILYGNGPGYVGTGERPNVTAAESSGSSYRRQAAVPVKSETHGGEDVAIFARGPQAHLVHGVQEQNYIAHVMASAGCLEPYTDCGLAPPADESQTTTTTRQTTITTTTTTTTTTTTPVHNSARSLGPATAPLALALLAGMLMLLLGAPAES

[3] = molecular target: T1, Alkaline phosphatase, tissue-nonspecific isozyme (Homo sapiens, UniProt P05186); experiment: inhibition of tissue-nonspecific alkaline phosphatase – biochemical, dose response (AID 488882); assay type: functional
T1 sequence (P05186 whole entry): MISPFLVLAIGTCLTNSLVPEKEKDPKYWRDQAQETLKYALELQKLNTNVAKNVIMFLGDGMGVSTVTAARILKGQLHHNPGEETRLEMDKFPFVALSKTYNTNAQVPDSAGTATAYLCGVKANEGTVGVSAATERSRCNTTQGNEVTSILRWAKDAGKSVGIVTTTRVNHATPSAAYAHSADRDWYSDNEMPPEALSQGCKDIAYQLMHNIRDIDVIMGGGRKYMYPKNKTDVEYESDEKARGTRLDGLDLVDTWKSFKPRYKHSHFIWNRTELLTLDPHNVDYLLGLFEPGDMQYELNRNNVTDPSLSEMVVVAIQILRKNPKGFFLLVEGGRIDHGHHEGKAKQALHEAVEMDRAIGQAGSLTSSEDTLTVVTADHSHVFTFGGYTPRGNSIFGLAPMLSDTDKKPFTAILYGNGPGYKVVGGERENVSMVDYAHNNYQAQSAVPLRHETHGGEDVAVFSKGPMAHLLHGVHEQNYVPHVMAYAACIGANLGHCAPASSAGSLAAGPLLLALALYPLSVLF

[4] = molecular target: T2, Insulin-degrading enzyme (Homo sapiens, UniProt P14735); experiment: recombinant IDE activation, cell-free – biochemical, fluorescence polarization, counter-screen for IDE activator project, dose response (AID 588681)
T2 sequence (P14735 whole entry): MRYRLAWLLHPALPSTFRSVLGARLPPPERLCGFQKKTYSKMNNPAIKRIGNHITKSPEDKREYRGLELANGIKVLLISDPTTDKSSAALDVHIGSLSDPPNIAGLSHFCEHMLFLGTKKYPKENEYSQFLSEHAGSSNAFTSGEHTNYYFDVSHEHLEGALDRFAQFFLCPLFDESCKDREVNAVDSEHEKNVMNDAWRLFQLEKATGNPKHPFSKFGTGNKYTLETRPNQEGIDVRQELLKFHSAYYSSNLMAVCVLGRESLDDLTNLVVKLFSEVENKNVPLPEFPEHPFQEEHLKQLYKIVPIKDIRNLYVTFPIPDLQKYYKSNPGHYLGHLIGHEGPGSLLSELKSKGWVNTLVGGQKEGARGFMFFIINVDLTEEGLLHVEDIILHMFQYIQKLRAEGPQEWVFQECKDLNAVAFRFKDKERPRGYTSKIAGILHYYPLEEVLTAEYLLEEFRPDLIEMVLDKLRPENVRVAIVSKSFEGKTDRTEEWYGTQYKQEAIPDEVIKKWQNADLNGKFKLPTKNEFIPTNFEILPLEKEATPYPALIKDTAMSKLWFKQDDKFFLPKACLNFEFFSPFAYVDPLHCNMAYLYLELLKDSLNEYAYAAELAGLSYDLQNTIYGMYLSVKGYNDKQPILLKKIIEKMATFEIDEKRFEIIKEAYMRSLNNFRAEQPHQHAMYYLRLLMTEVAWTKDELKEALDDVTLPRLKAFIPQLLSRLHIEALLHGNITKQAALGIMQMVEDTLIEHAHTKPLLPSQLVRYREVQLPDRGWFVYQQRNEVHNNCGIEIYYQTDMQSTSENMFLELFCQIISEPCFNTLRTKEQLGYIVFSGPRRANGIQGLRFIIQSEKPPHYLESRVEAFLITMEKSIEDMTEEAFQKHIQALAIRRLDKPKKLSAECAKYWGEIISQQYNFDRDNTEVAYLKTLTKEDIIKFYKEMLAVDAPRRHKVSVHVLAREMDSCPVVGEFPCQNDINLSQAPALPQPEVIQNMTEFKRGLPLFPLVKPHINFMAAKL

[5] = molecular target: T3, RNA-binding protein pos-1 (Caenorhabditis elegans, UniProt G5EF15); experiment: disruptors of C. elegans POS-1 RNA interaction – biochemical, fluorescence polarization, dose response (AID 1964);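 note: purified POS-1 fused to maltose binding protein made in E. coli; potency of compounds blocking POS-1 binding to fluorescent RNA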
T3 sequence (G5EF15 whole entry): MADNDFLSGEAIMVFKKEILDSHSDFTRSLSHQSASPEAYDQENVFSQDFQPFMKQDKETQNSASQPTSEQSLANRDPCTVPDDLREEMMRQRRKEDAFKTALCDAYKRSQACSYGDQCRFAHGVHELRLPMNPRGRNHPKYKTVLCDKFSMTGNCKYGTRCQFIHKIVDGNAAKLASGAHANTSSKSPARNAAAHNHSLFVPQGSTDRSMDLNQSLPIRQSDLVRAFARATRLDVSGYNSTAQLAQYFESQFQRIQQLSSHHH

[6] = molecular target: Serine/threonine-protein kinase TBK1 (Homo sapiens, UniProt Q9UHD2); experiment: Navigating the Kinome. Panel member name: TBK1; assay type: functional
Serine/threonine-protein kinase TBK1, sequence (Q9UHD2 whole entry): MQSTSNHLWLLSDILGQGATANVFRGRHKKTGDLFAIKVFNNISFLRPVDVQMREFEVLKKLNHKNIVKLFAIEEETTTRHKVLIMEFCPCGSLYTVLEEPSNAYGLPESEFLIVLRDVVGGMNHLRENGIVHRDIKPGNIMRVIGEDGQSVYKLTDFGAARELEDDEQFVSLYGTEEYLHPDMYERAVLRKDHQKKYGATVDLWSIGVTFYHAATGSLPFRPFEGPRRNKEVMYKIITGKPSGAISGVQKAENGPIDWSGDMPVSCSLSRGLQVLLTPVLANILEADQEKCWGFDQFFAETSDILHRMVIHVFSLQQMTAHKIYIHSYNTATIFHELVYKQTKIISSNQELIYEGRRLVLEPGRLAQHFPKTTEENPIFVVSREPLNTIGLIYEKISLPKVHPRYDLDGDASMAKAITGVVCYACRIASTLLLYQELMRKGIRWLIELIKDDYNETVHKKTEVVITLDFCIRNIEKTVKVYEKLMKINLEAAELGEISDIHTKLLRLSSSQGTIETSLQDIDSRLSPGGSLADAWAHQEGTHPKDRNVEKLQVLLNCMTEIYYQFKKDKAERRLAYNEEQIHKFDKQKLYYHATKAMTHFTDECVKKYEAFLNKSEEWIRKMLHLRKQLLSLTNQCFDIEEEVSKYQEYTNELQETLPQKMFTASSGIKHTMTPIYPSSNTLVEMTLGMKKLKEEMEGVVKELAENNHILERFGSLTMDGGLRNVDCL

[7] = molecular target: Serine/threonine-protein kinase 17A (Homo sapiens, UniProt Q9UEE5); assay type: functional
Serine/threonine-protein kinase 17A, sequence (Q9UEE5 whole entry): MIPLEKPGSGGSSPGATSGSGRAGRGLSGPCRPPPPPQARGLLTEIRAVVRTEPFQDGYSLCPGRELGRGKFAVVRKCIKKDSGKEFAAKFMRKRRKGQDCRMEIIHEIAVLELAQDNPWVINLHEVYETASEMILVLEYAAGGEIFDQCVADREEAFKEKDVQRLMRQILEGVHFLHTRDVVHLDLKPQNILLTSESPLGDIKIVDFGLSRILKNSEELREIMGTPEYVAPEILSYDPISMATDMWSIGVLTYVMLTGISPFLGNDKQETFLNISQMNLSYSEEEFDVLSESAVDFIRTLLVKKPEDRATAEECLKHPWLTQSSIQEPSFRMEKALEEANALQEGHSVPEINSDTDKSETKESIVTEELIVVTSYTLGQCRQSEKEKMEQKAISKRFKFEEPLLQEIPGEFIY

[8] = molecular target: Serine/threonine-protein kinase Chk2 (Homo sapiens, UniProt O96017); assay type: functional;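 note: CHEK2 entry within a kinome-wide screening panel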
Serine/threonine-protein kinase Chk2, sequence (O96017 whole entry): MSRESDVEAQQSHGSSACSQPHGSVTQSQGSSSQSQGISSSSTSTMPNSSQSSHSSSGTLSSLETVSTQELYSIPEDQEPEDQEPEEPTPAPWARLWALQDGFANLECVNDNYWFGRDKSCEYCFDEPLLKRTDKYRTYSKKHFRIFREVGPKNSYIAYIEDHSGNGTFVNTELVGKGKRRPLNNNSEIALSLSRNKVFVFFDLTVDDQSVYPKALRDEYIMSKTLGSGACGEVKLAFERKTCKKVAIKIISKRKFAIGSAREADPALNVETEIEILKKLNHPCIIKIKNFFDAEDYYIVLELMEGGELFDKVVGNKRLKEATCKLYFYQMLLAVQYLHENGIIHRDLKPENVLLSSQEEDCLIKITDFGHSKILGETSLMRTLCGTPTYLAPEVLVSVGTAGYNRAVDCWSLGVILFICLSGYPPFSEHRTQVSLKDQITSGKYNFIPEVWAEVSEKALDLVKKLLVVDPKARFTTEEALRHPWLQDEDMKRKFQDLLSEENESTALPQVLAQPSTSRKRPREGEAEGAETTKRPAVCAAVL

[9] = molecular target: Cell division cycle 7-related protein kinase (Homo sapiens, UniProt O00311); assay type: functional;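 note: value obtained from a kinome-wide kinase panel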
Cell division cycle 7-related protein kinase, sequence (O00311 whole entry): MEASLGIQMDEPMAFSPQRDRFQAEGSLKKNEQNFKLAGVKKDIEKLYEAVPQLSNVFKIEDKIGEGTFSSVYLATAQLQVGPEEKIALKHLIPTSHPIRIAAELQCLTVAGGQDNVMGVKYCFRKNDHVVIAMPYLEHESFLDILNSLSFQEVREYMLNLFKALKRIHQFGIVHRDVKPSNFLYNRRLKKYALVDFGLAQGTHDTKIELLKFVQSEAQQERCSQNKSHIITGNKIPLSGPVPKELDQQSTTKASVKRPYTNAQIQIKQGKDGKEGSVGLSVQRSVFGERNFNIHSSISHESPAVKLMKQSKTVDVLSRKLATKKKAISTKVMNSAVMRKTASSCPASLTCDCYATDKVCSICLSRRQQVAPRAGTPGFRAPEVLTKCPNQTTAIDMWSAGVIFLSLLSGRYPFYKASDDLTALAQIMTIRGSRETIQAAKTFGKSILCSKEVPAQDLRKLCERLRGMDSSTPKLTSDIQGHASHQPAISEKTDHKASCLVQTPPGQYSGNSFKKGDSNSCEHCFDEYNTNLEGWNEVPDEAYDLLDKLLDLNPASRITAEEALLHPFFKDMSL

[10] = molecular target: Serine/threonine-protein kinase PAK 4 (Homo sapiens, UniProt O96013); assay type: functional;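 note: value obtained within a kinome profiling panel in which PAK4 was one of the panel members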
[11] = molecular target: Tyrosine-protein kinase ITK/TSK (Homo sapiens, UniProt Q08881); assay type: functional;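 note: affinity for ITK measured as one member of a broad kinase panel profiling binding across the kinome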
[12] = molecular target: Homeodomain-interacting protein kinase 2 (Homo sapiens, UniProt Q9H2X6); assay type: functional;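 note: measured within a kinome-wide kinase profiling panel, HIPK2 being one panel member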
[13] = molecular target: MAP kinase-activated protein kinase 3 (Homo sapiens, UniProt Q16644); assay type: functional;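 note: value comes from a kinome-wide profiling panel in which MAPKAPK3 is one of the panel members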
[14] = molecular target: Mitogen-activated protein kinase 1 (Homo sapiens, UniProt P28482); assay type: functional
[15] = molecular target: Dual specificity tyrosine-phosphorylation-regulated kinase 4 (Homo sapiens, UniProt Q9NR20); assay type: functional
[16] = molecular target: Interleukin-1 receptor-associated kinase 1 (Homo sapiens, UniProt P51617); assay type: functional;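 note: IRAK1 tested as one member of a kinome panel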
Interleukin-1 receptor-associated kinase 1, sequence (P51617 whole entry): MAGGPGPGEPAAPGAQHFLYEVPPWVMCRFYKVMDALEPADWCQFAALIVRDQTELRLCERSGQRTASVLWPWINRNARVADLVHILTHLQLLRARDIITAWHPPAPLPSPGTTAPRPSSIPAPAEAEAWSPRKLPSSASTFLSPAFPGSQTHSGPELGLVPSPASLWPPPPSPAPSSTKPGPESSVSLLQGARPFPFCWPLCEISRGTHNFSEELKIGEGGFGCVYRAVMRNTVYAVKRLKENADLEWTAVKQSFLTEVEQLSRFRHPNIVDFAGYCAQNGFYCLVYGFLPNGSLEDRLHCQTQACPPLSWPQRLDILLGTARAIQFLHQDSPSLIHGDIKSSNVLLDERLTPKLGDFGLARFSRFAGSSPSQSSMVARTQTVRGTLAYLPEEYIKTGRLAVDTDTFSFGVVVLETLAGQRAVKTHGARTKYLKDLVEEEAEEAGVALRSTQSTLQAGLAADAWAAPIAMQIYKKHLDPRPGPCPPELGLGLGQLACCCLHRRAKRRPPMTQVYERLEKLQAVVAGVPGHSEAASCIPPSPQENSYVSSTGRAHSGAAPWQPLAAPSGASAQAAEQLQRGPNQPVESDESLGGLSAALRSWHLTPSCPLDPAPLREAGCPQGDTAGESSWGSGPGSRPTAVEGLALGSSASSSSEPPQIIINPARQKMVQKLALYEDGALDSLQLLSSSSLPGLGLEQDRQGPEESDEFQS

[17] = molecular target: RAC-alpha serine/threonine-protein kinase (Homo sapiens, UniProt P31749); assay type: functional;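 note: AKT1 affinity measured as one member of a kinome-wide kinase profiling panel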
[18] = molecular target: Serine/threonine-protein kinase DCLK1 (Homo sapiens, UniProt O15075); assay type: functional;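 note: affinity for DCLK1 (listed as DCAMKL1) measured as one member of a kinome-wide kinase profiling panel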
Serine/threonine-protein kinase DCLK1, sequence (O15075 whole entry): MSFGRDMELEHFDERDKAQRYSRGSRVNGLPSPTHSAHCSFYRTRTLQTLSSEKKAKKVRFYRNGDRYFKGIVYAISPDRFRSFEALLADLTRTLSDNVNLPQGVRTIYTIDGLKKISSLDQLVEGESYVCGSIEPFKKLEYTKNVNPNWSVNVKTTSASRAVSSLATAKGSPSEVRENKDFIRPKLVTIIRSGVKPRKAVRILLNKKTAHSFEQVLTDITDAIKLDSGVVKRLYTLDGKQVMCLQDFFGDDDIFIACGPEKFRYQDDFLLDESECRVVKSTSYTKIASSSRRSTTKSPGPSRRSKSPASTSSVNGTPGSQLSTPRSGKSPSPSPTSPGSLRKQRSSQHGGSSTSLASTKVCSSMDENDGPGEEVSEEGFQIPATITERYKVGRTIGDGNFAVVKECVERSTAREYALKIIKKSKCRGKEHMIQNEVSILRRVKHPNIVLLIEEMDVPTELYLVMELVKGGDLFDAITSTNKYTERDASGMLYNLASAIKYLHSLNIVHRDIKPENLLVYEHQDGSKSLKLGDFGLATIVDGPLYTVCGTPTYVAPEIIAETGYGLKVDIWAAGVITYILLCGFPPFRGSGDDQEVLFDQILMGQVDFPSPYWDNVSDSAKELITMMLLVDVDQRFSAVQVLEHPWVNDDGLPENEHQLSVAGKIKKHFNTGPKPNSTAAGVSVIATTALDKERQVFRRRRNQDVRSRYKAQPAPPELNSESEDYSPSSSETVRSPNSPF

[19] = molecular target: Serine/threonine-protein kinase PLK1 (Homo sapiens, UniProt P53350); assay type: functional;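 note: PLK1 measured as one member of a kinome-wide profiling panel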
Serine/threonine-protein kinase PLK1, sequence (P53350 whole entry): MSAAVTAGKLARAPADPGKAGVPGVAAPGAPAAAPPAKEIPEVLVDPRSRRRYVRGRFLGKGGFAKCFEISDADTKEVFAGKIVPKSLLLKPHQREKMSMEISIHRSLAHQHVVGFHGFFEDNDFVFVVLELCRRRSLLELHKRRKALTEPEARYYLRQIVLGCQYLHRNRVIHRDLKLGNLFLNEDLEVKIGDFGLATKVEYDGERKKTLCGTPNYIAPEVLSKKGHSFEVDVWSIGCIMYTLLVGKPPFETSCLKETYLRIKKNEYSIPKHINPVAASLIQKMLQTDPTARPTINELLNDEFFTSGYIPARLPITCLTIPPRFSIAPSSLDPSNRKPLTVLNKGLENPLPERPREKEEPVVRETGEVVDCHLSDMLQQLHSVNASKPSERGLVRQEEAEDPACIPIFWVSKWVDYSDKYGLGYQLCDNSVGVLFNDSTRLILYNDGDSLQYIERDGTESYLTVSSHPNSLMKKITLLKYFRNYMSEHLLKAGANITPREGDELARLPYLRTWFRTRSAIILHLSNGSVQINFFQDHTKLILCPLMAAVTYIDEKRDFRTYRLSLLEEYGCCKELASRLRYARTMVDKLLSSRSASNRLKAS

CCN1/C(=C\c2ccc3ccccc3[n+]2CC)Sc2cc(C)ccc21
active: IC50 [2] 20.8 µM | IC50 [3] 28.6 µM
inactive: IC50 [1] 72.8 µM

CCCCCCCCCCOC(=O)C[n+]1c(COc2ccc(C)cc2)n(C)c2ccccc21
inactive: EC50 [4] 16.9 µM

CC[C@@H](CO)NC(=O)[C@@H]1C=C2c3cccc4c3c(cn4C)C[C@H]2N(C)C1 [METHYSERGIDE MALEATE]
active: EC50 [5] 10.3 µM and 14.3 µM

CN1CCN(c2nc(C3=C(c4c[nH]c5ccccc45)C(=O)NC3=O)c3ccccc3n2)CC1 [SOTRASTAURIN]
inactive: Ki [6] > 3.16 µM | Ki [7] > 3.98 µM | Ki [8] > 1.58 µM | Ki [9] > 1.26 µM | Ki [10] > 5.01 µM | Ki [11] > 1.58 µM | Ki [12] > 3.16 µM | Ki [13] > 10 µM | Ki [14] > 7.94 µM | Ki [15] > 7.94 µM | Ki [16] > 7.94 µM | Ki [18] > 10 µM
active: Ki [17] 0.501 µM | Ki [19] 0.0631 µM
